Assay results published in patent US20190169134A1, “NOVEL CLASS OF QUINOLONE HETEROCYCLIC AROMATIC MOLECULES FOR CANCER TREATMENT” (RenoTarget Therapeutics, Inc., priority 2016, published 2019).
pIC50: −log10 of the molar value.

Columns and labels:
LNCaP = test: Cell growth inhibition by SRB method; type: cell-based, human; details: Homo sapiens, LNCaP; 72 hrs exposure, SRB
Description: (§1) Six human cancer cell lines have been used to evaluate effects of the compounds on proliferation of cancer cells. These cell lines include HCC827-P (or HCC827 parent cells), human non-small lung cancer cells, Parent NSCLC HCC827 cell line (which harbors EGFR gene amplification, Exon 19 (E19) deletion, and Exon 21 mutation (Wang, Ramakrishnan et al. 2010), and is an EGFRi sensitive cell line (Kim, Kim et al. 2010)); HCC827-TR16 (Tarceva-resistant HCC727 cell line), HCC827-OR16 (AZD9291-resistant HCC727 cell line), LNCaP (human prostate cancer cells—a hormonal-therapy sensitive cell line (Wang, Liu et al. 1997)); 22RV1 (human prostate cancer cells—a hormonal-therapy resistant cell line (Sramkoski, Pretlow et al. 1999)); and ACHN (human renal adenocarcinoma cells (Park, Jung et al. 2003)). LNCaP cells and 22RV1 cells were purchased from the American Type Culture Collection (Rockville, Md.) and others were gifts of friends.
(§2) All cell lines were maintained in RPMI-1640 (GIBCO, Gaithersburg, Md.) with 10% heat-inactivated bovine serum (FBS) (Wang, Ossowski et al. 2004).
(§3) Sulforhodamine B (SRB) was used to estimate cell growth as described previously (Skehan, Storeng et al. 1990). Briefly, cells grown exponentially were aliquoted into 96-well plates at a density of 2,500 to 5,000 cells/200 μl per well in RPMI 1640 medium containing 10% FBS. After twenty-four hours, the cells were exposed to indicated concentrations of tested compounds for 72 hrs or otherwise as indicated. The cells were then fixed with 10% trichloride acetic acid for 2 h at 4° C. The 10% trichloride acetic acid was removed, and the dishes were washed 5 times with tape water, and air-dried. The fixed and dried cells were then stained with 0.4% SRB in 1% acetic acid for 25 min, and the dishes were washed 5 times with 1% acetic acid and air-dried overnight. 200 μl of 10 mM of Tris buffer (pH 10.0) were added, and the dishes were rotated to completely dissolve the color. Absorbance at 570 nm, with a reference wavelength 690 nm, was measured on a 96-well microplate reader (SPECTRO Star^Nano, BMG Labtech). Mean, standard deviation (SD) and the percent of growth inhibition at each concentration point of the treatment were calculated. The percent of growth inhibition as defined as (1−T/C)×100 where T is the mean of the absorbance at 570 nm from the treatment, and C from control (drug vehicle only). IC50 was calculated using Sigma-plot software by regression of growth-concentration curve from each drug treatment.

ACHN = test: Cell growth inhibition by SRB method; type: cell-based, human; details: Homo sapiens, ACHN, 72 hrs exposure
Description: as §1, §2, §3

22RV1 = test: Cell growth inhibition by SRB method; type: cell-based, human; details: Homo sapiens, 22Rv1, 72 h, 72 hrs exposure, SRB
Description: as §1, §2, §3

HCC827OR16 = test: Cell growth inhibition by SRB method; type: cell-based, human; details: Homo sapiens, AZD9291-resistant line, 72 hrs exposure
Description: as §1
(§4) To evaluate activities of new compounds on growth of EGFR-inhibitor-resistant cells, two EGFRi-resistant cell lines, i.e., HCC827-TR16 and HCC827-OR16 were established using a method described by Eberlein et al. (Eberlein, Stetson et al. 2015). […] Resistant cells were collected and stabilized after 5 weeks (cycle 5). […] The resistant cells were sorted using 96-well dishes by culturing cells with density of 0.1, 1, 10, and 100 cells per well.
as §2, §3

HCC827P = test: Cell growth inhibition by SRB method; type: cell-based, human; details: Homo sapiens; 72 hrs exposure, SRB
Description: as §1, §4, §2, §3

RIPK2 = target: T1, RIPK2 (Homo sapiens, UniProt O43353); test: KinaseSeeker competition binding assay
T1 construct: made in house; host or cells: cell-free, rabbit reticulocyte lysate
T1 sequence (O43353 whole entry): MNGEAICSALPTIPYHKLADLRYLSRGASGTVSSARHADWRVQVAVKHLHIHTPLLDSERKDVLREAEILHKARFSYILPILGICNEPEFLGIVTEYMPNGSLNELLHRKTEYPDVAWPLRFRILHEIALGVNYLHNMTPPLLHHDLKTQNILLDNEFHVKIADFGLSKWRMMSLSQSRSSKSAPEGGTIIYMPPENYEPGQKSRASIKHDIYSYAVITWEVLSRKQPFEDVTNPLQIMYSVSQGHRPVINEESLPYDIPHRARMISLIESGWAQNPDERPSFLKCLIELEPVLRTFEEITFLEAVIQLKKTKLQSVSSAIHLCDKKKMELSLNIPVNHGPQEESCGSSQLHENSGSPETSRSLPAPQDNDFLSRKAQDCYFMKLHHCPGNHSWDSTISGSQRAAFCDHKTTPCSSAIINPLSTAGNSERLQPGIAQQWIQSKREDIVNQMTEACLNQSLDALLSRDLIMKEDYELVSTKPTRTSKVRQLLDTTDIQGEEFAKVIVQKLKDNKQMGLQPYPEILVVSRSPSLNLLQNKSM
Protocol: (§5) Compound Reno647 was profiled against the following panel of kinases at 2 μM using the KinaseSeeker™ assay: ABL1, AKT1, AKT2, AKT3, ALK, AURKA, AXL, BRAF, BTK, CDK2, CDK5, CDK7, CDK8, CSF1R, DDR1, EGFR del L747-P753 InsS, EGFR (L861Q), EGFR (G719S), EGFR, EGFR (L858R), EPHA2, EPHB2, FGFR3, FLT1/VEGFR1, FLT2/FGFR1, FLT3, FLT4/VEGFR3, GSK-3a, HER2, IGF1R, INSR, KIT, LIMK1, MET, MLK2/MAP3K10, RPS6KA5/MSK1, MUSK, p38a/MAPK12, PDGFRA, PDGFRB, PDK1, RET, RIPK2, RPS6KA1/RSK1, SRC, TEC, TESK1, TRKB, VEGFR2, and YES 1.
(§6) KinaseSeeker is a homogeneous competition binding assay where the displacement of an active site dependent probe by an inhibitor is measured by a change in luminescence signal (see FIG. 7). Luminescence readout translates into a highly sensitive and robust assay with low background and minimal interference from test compounds.
(§7) (Jester, Cox et al. 2010; Jester, Gaj et al. 2012): 10 mM stock of compound Reno647 was diluted in DMSO to a concentration of 50 μM. Prior to initiating a profiling campaign, the compound was evaluated for false positive against split-luciferase. The compound was then screened in duplicate against each of the kinases. For kinase assays, each Cfluc-Kinase was translated along with Fos-Nfluc using a cell-free system (rabbit reticulocyte lysate) at 30° C. for 90 min. A 24 μL aliquot of this lysate containing either 1 μL of DMSO (for no-inhibitor control) or compound solution in DMSO (2 LM final concentration) was incubated for 30 minutes at room temperature followed by 1 hour in the presence of a kinase specific probe. A 80 μL of luciferin assay reagent was added to each solution and luminescence was immediately measured on a luminometer.
(§8) The % Inhibition and % Activity Remaining were calculated using the following equations:
(§9) % inhibition=(ALUcontrol−ALUsample)×100
(§10) % activity=100−% inhibition.

BTK = target: T2, BTK (Homo sapiens, UniProt Q06187); test: KinaseSeeker competition binding assay
T2 construct: made in house; host or cells: cell-free system (rabbit reticulocyte lysate)
T2 sequence (Q06187 whole entry): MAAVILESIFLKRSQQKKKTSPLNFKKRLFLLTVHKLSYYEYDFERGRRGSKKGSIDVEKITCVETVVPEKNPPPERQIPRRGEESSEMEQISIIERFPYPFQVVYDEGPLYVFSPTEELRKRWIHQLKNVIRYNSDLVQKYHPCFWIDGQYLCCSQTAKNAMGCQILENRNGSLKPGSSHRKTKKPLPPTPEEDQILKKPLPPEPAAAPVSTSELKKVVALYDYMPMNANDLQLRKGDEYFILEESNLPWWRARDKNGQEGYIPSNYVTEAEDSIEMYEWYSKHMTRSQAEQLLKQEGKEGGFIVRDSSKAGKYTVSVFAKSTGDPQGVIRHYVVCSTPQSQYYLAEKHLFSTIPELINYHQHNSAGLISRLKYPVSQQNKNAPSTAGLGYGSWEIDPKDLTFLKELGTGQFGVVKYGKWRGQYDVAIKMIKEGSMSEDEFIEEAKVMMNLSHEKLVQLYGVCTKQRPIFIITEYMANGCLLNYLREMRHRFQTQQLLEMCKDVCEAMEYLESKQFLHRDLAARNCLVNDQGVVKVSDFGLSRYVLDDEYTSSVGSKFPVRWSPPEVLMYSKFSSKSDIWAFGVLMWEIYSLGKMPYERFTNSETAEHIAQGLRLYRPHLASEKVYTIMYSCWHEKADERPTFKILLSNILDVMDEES
Protocol: as §5, §6, §7, §8, §9, §10

YES1 = target: T3, YES1 (Homo sapiens, UniProt P07947); test: KinaseSeeker competition binding assay
T3 construct: made in house; host or cells: cell-free, rabbit reticulocyte lysate
T3 sequence (P07947 whole entry): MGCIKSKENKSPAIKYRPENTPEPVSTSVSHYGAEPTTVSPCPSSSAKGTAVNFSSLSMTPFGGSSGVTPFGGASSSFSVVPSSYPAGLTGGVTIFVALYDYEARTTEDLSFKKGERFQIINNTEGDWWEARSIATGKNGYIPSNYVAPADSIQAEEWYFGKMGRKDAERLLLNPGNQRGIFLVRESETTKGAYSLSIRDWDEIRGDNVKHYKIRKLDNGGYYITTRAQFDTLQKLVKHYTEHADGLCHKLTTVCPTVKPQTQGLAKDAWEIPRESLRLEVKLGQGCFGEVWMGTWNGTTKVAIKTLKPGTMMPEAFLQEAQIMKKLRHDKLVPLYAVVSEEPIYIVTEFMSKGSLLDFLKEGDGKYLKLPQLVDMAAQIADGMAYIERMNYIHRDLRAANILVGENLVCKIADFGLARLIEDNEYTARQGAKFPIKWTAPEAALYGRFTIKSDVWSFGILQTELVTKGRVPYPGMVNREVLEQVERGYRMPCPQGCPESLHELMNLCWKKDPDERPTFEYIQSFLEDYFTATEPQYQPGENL
Protocol: as §5, §6, §7, §8, §9, §10

AURKA = target: T4, AURKA (Homo sapiens, UniProt O14965); test: KinaseSeeker competition binding assay
T4 construct: made in house; host or cells: cell-free system (rabbit reticulocyte lysate)
T4 sequence (O14965 whole entry): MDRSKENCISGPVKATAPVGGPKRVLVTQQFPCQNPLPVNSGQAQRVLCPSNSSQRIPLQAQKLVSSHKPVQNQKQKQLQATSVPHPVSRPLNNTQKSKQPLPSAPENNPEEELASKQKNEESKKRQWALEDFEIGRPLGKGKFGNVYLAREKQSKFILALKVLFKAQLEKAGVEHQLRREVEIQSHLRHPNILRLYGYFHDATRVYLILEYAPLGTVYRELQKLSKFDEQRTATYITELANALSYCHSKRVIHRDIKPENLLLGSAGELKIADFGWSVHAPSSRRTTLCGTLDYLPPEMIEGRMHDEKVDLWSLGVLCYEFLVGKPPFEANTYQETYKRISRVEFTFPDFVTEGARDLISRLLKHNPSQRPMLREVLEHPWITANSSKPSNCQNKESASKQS
Protocol: as §5, §6, §7, §8, §9, §10

CDK5 = target: T5, CDK5 (Homo sapiens, UniProt Q00535); test: KinaseSeeker competition binding assay
T5 construct: made in house; host or cells: cell-free system (rabbit reticulocyte lysate)
T5 sequence (Q00535 whole entry): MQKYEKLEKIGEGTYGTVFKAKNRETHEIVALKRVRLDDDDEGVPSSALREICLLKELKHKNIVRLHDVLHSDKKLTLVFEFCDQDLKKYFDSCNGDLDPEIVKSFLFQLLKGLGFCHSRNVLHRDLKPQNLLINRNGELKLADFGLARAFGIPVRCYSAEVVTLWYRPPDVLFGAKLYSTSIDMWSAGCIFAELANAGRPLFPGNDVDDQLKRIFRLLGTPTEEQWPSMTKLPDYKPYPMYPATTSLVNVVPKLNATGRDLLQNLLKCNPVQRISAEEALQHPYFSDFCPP
Protocol: as §5, §6, §7, §8, §9, §10

ABL1 = target: T6, ABL1 (Homo sapiens, UniProt P00519); test: KinaseSeeker competition binding assay
T6 construct: made in house; host or cells: cell-free system (rabbit reticulocyte lysate)
T6 sequence (P00519 whole entry): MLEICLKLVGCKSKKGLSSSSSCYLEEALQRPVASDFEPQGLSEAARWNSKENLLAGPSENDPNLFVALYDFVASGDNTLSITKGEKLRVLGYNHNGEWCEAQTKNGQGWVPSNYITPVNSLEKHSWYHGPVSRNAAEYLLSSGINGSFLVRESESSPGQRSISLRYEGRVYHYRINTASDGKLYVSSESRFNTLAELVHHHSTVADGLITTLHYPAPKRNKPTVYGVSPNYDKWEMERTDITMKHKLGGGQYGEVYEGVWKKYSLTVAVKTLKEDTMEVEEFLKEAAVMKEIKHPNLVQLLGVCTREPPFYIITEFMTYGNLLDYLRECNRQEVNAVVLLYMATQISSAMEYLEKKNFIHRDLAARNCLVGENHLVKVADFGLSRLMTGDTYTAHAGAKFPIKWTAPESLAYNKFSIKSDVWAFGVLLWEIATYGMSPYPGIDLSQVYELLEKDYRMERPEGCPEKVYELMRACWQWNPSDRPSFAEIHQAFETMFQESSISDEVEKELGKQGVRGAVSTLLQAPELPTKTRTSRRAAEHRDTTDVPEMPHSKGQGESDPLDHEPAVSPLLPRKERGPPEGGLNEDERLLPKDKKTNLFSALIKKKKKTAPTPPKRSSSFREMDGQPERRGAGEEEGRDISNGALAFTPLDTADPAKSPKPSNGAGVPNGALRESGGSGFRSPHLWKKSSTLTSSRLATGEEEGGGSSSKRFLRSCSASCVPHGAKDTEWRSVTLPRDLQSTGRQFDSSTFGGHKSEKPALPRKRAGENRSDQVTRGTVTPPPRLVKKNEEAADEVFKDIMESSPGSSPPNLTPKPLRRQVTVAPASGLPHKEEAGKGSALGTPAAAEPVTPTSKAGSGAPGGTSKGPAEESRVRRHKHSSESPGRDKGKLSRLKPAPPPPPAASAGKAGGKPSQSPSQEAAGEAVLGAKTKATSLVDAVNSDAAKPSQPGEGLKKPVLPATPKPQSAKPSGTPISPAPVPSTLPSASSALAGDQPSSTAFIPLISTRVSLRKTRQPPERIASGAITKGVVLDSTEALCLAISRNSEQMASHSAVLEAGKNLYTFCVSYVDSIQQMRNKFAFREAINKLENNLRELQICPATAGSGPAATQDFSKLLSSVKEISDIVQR
Protocol: as §5, §6, §7, §8, §9, §10

- pIC50 (LNCaP): 5.90
- pIC50 (ACHN): 5.90
- pIC50 (22RV1): ~6.30
- pIC50 (HCC827OR16): 6.42
- pIC50 (HCC827P): 6.82
- remaining binding at 2 µM (RIPK2): ~41%
- remaining binding at 2 µM (BTK): 93.1%
- remaining binding at 2 µM (YES1): 87.1%
- remaining binding at 2 µM (AURKA): 100%
- remaining binding at 2 µM (CDK5): 99.5%
- remaining binding at 2 µM (ABL1): 100%
Compound: C#Cc1cccc(Nc2ncnc3cc(OCCOC)c(NC(=O)c4ccc(F)c([N+](=O)[O-])c4)cc23)c1 [Reno647, 4-Fluoro-N-[4-(3-ethynyl-phenylamino)-7-(2-methoxy-ethoxy)-quinazolin-6-yl]-3-nitro-benzamide]
